In brackets after ≈: the same amount, converted by molar mass.
Legend:
[1] = Ionization constant, pKa of the compound by UV spectroscopy; type: physicochemical
[2] = n-octanol/water partition coefficient, log P of the compound at 25 deg C after 24 hrs by saturation shake flask based UV spectroscopy; type: physicochemical
[3] = test system: Shigella dysenteriae; assay: Antibacterial activity against Shigella dysenteriae ATCC 51252 after 24 hrs by micro broth dilution method; type: functional; conditions: ATCC 51252, 24 h
[4] = test system: Pseudomonas aeruginosa; assay: Antibacterial activity against Pseudomonas aeruginosa ATCC 27853 after 24 hrs by micro broth dilution method; type: functional; conditions: ATCC 27853, 24 h
[5] = test system: Cyberlindnera jadinii; assay: Antifungal activity against Candida utilis ATCC 9950 after 24 hrs by micro broth dilution method; type: functional; conditions: Williopsis jadinii, ATCC 9950, 24 h
[6] = test system: Escherichia coli; assay: Antibacterial activity against Escherichia coli DH52 after 24 hrs by micro broth dilution method; type: functional; conditions: DH52, 24 h
[7] = test system: Staphylococcus aureus; assay: Antibacterial activity against methicillin-resistant Staphylococcus aureus N315 after 24 hrs by micro broth dilution method; type: functional; conditions: N315, 24 h
[8] = test system: Micrococcus luteus; assay: Antibacterial activity against Micrococcus luteus ATCC 4698 after 24 hrs by micro broth dilution method; type: functional; conditions: ATCC 4698, 24 h
[9] = test system: Aspergillus flavus; assay: Antifungal activity against Aspergillus flavus after 24 hrs by micro broth dilution method; type: functional
[10] = test system: Bacillus spizizenii; assay: Antibacterial activity against Bacillus subtilis ATCC 6633 after 24 hrs by micro broth dilution method; type: functional; conditions: ATCC 6633, 24 h
[11] = test system: Staphylococcus aureus; assay: Antibacterial activity against Staphylococcus aureus ATCC 25923 after 24 hrs by micro broth dilution method; type: functional; conditions: ATCC 25923, 24 h
[12] = test system: Candida; assay: Antifungal activity against Candida mycoderma after 24 hrs by micro broth dilution method; type: functional
[13] = test system: Bacillus sp.; assay: Antibacterial activity against Bacillus proteus ATCC 13315 after 24 hrs by micro broth dilution method; type: functional; conditions: Bacillus sp. (in: firmicutes), ATCC 13315, 24 h
[14] = test system: Candida albicans; assay: Antifungal activity against Candida albicans ATCC 90029 after 24 hrs by micro broth dilution method; type: functional; conditions: ATCC 90029, 24 h

| SMILES | pKa [1] | logP at 24 h [2] | MIC [3] [µg/mL] | MIC [4] [µg/mL] | MIC [5] [µg/mL] | MIC [6] [µg/mL] | MIC [7] [µg/mL] | MIC [8] [µg/mL] | MIC [9] [µg/mL] | MIC [10] [µg/mL] | MIC [11] [µg/mL] | MIC [12] [µg/mL] | MIC [13] [µg/mL] | MIC [14] [µg/mL] |
| --- | --- | --- | --- | --- | --- | --- | --- | --- | --- | --- | --- | --- | --- | --- |
| Fc1ccccc1CN(Cc1nnn[nH]1)c1ccccc1 | 4.22 | 1.28 | 128 (≈ 452 µM) | 64 (≈ 226 µM) | 32 (≈ 113 µM) | 64 (≈ 226 µM) | 64 (≈ 226 µM) | 64 (≈ 226 µM) | 64 (≈ 226 µM) | 32 (≈ 113 µM) | 64 (≈ 226 µM) | 16 (≈ 56.5 µM) | 64 (≈ 226 µM) | 32 (≈ 113 µM) |
| Fc1ccc(CN(Cc2nnn[nH]2)c2ccccc2)c(F)c1 | 4.13 | 1.36 | 64 (≈ 212 µM) | 32 (≈ 106 µM) | 16 (≈ 53.1 µM) | 64 (≈ 212 µM) | 32 (≈ 106 µM) | 64 (≈ 212 µM) | 32 (≈ 106 µM) | 64 (≈ 212 µM) | 64 (≈ 212 µM) | 16 (≈ 53.1 µM) | 64 (≈ 212 µM) | 64 (≈ 212 µM) |
| N#CCN(Cc1ccccc1F)c1ccccc1 | – | – | 512 (≈ 2130 µM) | 128 (≈ 533 µM) | 128 (≈ 533 µM) | 128 (≈ 533 µM) | 128 (≈ 533 µM) | 256 (≈ 1070 µM) | 128 (≈ 533 µM) | 256 (≈ 1070 µM) | 128 (≈ 533 µM) | 128 (≈ 533 µM) | 512 (≈ 2130 µM) | 128 (≈ 533 µM) |
| CCCCCCCCN(Cc1nnn[nH]1)c1ccccc1 | 4.83 | 2.24 | 128 (≈ 445 µM) | 256 (≈ 891 µM) | 128 (≈ 445 µM) | 64 (≈ 223 µM) | 128 (≈ 445 µM) | 64 (≈ 223 µM) | 128 (≈ 445 µM) | 128 (≈ 445 µM) | 128 (≈ 445 µM) | 32 (≈ 111 µM) | 128 (≈ 445 µM) | 64 (≈ 223 µM) |
| N#CCN(Cc1ccc(Cl)cc1)c1ccccc1 | – | – | 128 (≈ 499 µM) | 64 (≈ 249 µM) | 128 (≈ 499 µM) | 128 (≈ 499 µM) | 256 (≈ 997 µM) | 128 (≈ 499 µM) | 256 (≈ 997 µM) | 128 (≈ 499 µM) | 128 (≈ 499 µM) | 128 (≈ 499 µM) | 128 (≈ 499 µM) | 128 (≈ 499 µM) |
| N#CCN(Cc1ccc(Cl)c(Cl)c1)c1ccccc1 | – | – | 128 (≈ 440 µM) | 256 (≈ 879 µM) | 256 (≈ 879 µM) | 256 (≈ 879 µM) | 256 (≈ 879 µM) | 256 (≈ 879 µM) | 256 (≈ 879 µM) | 128 (≈ 440 µM) | 256 (≈ 879 µM) | 128 (≈ 440 µM) | 256 (≈ 879 µM) | 64 (≈ 220 µM) |
| N#CCN(Cc1ccc(Cl)cc1Cl)c1ccccc1 | – | – | 256 (≈ 879 µM) | 256 (≈ 879 µM) | 128 (≈ 440 µM) | 128 (≈ 440 µM) | 256 (≈ 879 µM) | 256 (≈ 879 µM) | 256 (≈ 879 µM) | 128 (≈ 440 µM) | 256 (≈ 879 µM) | 64 (≈ 220 µM) | 256 (≈ 879 µM) | 128 (≈ 440 µM) |
| N#CCN(Cc1ccccc1Cl)c1ccccc1 | – | – | 128 (≈ 499 µM) | 128 (≈ 499 µM) | 64 (≈ 249 µM) | 256 (≈ 997 µM) | 128 (≈ 499 µM) | 256 (≈ 997 µM) | 128 (≈ 499 µM) | 256 (≈ 997 µM) | 128 (≈ 499 µM) | 64 (≈ 249 µM) | 128 (≈ 499 µM) | 128 (≈ 499 µM) |
| Cc1ccc(N(Cc2nnn[nH]2)Cc2ccc(F)cc2F)cc1 | 4.23 | 1.42 | 64 (≈ 203 µM) | 32 (≈ 101 µM) | 32 (≈ 101 µM) | 64 (≈ 203 µM) | 64 (≈ 203 µM) | 64 (≈ 203 µM) | 32 (≈ 101 µM) | 64 (≈ 203 µM) | 64 (≈ 203 µM) | 16 (≈ 50.7 µM) | 64 (≈ 203 µM) | 32 (≈ 101 µM) |
| N#CCN(Cc1ccc(F)cc1)c1ccccc1 | – | – | 128 (≈ 533 µM) | 256 (≈ 1070 µM) | 128 (≈ 533 µM) | 128 (≈ 533 µM) | 128 (≈ 533 µM) | 512 (≈ 2130 µM) | 128 (≈ 533 µM) | 128 (≈ 533 µM) | 256 (≈ 1070 µM) | 128 (≈ 533 µM) | 256 (≈ 1070 µM) | 64 (≈ 266 µM) |
| CCCCCCCCCCCCN(CC#N)c1ccccc1 | – | – | 512 (≈ 1700 µM) | 512 (≈ 1700 µM) | 256 (≈ 852 µM) | 256 (≈ 852 µM) | 512 (≈ 1700 µM) | 128 (≈ 426 µM) | 128 (≈ 426 µM) | 256 (≈ 852 µM) | 256 (≈ 852 µM) | 256 (≈ 852 µM) | 512 (≈ 1700 µM) | 256 (≈ 852 µM) |
| Clc1ccc(CN(Cc2nnn[nH]2)c2ccccc2)cc1Cl | 4.49 | 1.63 | 64 (≈ 191 µM) | 64 (≈ 191 µM) | 32 (≈ 95.7 µM) | 64 (≈ 191 µM) | 128 (≈ 383 µM) | 128 (≈ 383 µM) | 32 (≈ 95.7 µM) | 64 (≈ 191 µM) | 128 (≈ 383 µM) | 16 (≈ 47.9 µM) | 128 (≈ 383 µM) | 64 (≈ 191 µM) |
| CCCCCCCCCCN(Cc1nnn[nH]1)c1ccccc1 | 4.87 | – | 64 (≈ 203 µM) | 128 (≈ 406 µM) | 16 (≈ 50.7 µM) | 32 (≈ 101 µM) | 32 (≈ 101 µM) | 32 (≈ 101 µM) | 32 (≈ 101 µM) | 32 (≈ 101 µM) | 64 (≈ 203 µM) | 32 (≈ 101 µM) | 64 (≈ 203 µM) | 32 (≈ 101 µM) |
